# Literature values in patent US20040002663A1, “Method and system for use in detecting a cancerous and precancerous pathology” (priority 2002, published 2004).
# Read-outs that look alike come from different tables or passages of the source.
# Tests used:
# [1] = tested on: patients with orthostatic hypotension
# [2] = tested on: patients with orthostatic hypotension; conditions: for increase in one-minute standing systolic blood pressure: 10 mg at 0, 3, 6 hours
# [3] = tested on: patients with orthostatic hypotension; conditions: for increase in standing one-minute systolic pressure: at one hour
# [4] = tested on: patients with orthostatic hypotension of various etiologies
# [5] = tested on: alpha-adrenergic receptors of the arteriolar and venous vasculature; conditions: active metabolite of midodrine
# [6] = tested on: cardiac beta-adrenergic receptors
# [7] = 10 mg t.i.d., printed as a pair (systolic/diastolic)
Compound,"higher one-minute standing systolic pressure ([1]; 10 mg t.i.d., one hour after dosing, 170 patients, vs placebo)","sitting blood pressure rise [1, 7]","supine blood pressure rise [1, 7]",dizziness/light headedness/unsteadiness scores and global evaluations ([1]; after week one),increase in one-minute standing systolic blood pressure ([2]; one hour after each dose),increase in one-minute standing systolic blood pressure ([2]; three hours after each dose),"three-minute standing pressures ([2]; 10 mg, one and 3 hours after dosing)","standing time ([2]; 10 mg, one and three hours after dosing)",time the increase in standing systolic pressure was sustained in part ([3]; after 10 mg),time the increase in standing systolic pressure was sustained in part ([3]; after 20 mg),increase in standing one-minute systolic pressure ([3]; single 10 mg dose),increase in standing one-minute systolic pressure ([3]; single 20 mg dose),"standing, sitting, and supine systolic and diastolic blood pressure [4]",action at alpha-adrenergic receptors [5],stimulation of cardiac beta-adrenergic receptors [6]
"COc1ccc(OC)c(C(O)CNC(=O)CN)c1.Cl (racemic) [midodrine, (±)−2-amino-N-(β-hydroxy-2,5-dimethoxyphenethyl)acetamide monohydrochloride]",about 20 mmHg,20/10,16/8,small improvements,about 15 mmHg,about 12 mmHg,"increased also at one, but not 3, hours after dosing","increases in standing time seen intermittently one hour after dosing, but not at three hours",two,four,about 30 mmHg,about 30 mmHg,rise,,
COc1ccc(OC)c(C(O)CN)c1 (stereo not drawn) [Desglymidodrine],,,,,,,,,,,,,,alph1-agonist,does not stimulate
